Data from article PMC6718988, “Bioactivity and Bactericidal Mechanism of Histidine-Rich β-Hairpin Peptide Against Gram-Negative Bacteria” (International Journal of Molecular Sciences, 2019).
Converted amounts (≈) assume the structure as drawn. Where a SMILES comes first, the peptide text is derived from it. [ ]: non-standard residue; d: D form.

Tests used:
E. coli ATCC25922 [1] = experiment: microbe, parasite or virus in culture; conditions: ATCC25922, 24 h
Experimental: (§1) The minimum inhibitory concentration (MIC) was measured using a broth microdilution method to determine the in vitro antimicrobial activity of the peptides. Bacteria were inoculated into MHB and incubated overnight at 37 °C until the bacteria were in log phase growth. Next, we corrected the bacterial concentration to approximately 1 × 10^5 CFU/mL using MHB. The peptides were added to 96-well plates containing 0.01% acetic acid and 0.2% bovine serum albumin at final concentrations ranging from 0.25 to 128 μM. After incubation at 37 °C for 24 h, the absorbance was measured at 492 nm using a microplate reader (Tecan GENios F129004, Tecan, Austria). Broth containing microbes and […] were used as positive and negative controls, respectively. The lowest peptide concentration with no increase in absorbance compared to that of the negative control was defined as the MIC. The experiments were independently performed three times.

E. coli K88 = experiment: microbe, parasite or virus in culture; conditions: E. coli K88; MHB, about 1 × 10^5 CFU/mL, 37 °C, 24 h; three independent experiments
Experimental: as §1

E. coli K99 = experiment: microbe, parasite or virus in culture; conditions: E. coli K99; MHB, about 1 × 10^5 CFU/mL, 37 °C, 24 h; three independent experiments
Experimental: as §1

E. coli UB1005 = experiment: microbe, parasite or virus in culture; conditions: UB1005, 24 h
Experimental: as §1

P. aeruginosa ATCC27853 = experiment: microbe, parasite or virus in culture; conditions: ATCC27853, 24 h
Experimental: as §1

S. aureus ATCC29213 = experiment: microbe, parasite or virus in culture; conditions: ATCC29213, 24 h
Experimental: as §1

S. epidermidis ATCC12228 = experiment: microbe, parasite or virus in culture; conditions: ATCC12228, 24 h
Experimental: as §1

S. pullorum C7913 = experiment: microbe, parasite or virus in culture; conditions: C7913, 24 h
Experimental: as §1

[2] = system: methicillin-resistant S. aureus ATCC43300; experiment: microbe, parasite or virus in culture; conditions: ATCC43300, 24 h
Experimental: as §1

Gram-negative bacteria = experiment: MICs against Gram-negative strains (geometric mean, range); format: cell-based
Experimental: as §1

[3] = system: Gram-positive and Gram-negative bacteria; conditions: 24 h
Experimental: as §1

Gram-positive bacteria = conditions: 24 h
Experimental: as §1

E. coli ATCC25922 [4] = experiment: Salt sensitivity assay (MIC in presence of physiological salts); format: cell-based; parameters: unit not given here
Experimental: Bacteria were inoculated into MHB and incubated overnight at 37 °C until the bacteria were in log phase growth. Next, we corrected the bacterial concentration to approximately 1 × 10^5 CFU/mL using MHB. […] After incubation at 37 °C for 24 h, the absorbance was measured at 492 nm using a microplate reader (Tecan GENios F129004, Tecan, Austria). Broth containing microbes and […] were used as positive and negative controls, respectively. The lowest peptide concentration with no increase in absorbance compared to that of the negative control was defined as the MIC. The experiments were independently performed three times. The effects of salt ions on the antibacterial activities of the antimicrobial peptides were evaluated. Different salt ion concentrations were added to BSA peptide dilutions, and the next steps followed the MIC measurement method. […] These tests were independently repeated three times.

[5] = LPS binding assay (BODIPY-TR-cadaverine displacement); parameters: species or system E. coli; conditions: peptide concentration higher than 4 μM; 50 μg/mL LPS, 5 μg/mL BODIPY-TR cadaverine, Tris 50 mM pH 7.4; 100% = 10 μg/mL polymyxin B
Experimental: The abilities of the antimicrobial peptides to bind LPS were determined using the fluorescent dye BODIPY-TR-cadaverine (BC) substitution method. LPS (50 μg/mL) from E. coli O111:B4 was incubated with BC (5 μg/mL) in Tris buffer (50 mm, pH 7.4) for 4 h. Next, 50 μL of various concentrations of peptides (final concentration of 1–64 μM) and 50 μL of LPS-BC mixture were added to 96-well plates, and the fluorescence was measured using a fluorescence spectrophotometer (Infinite 200 pro, Tecan, China) at an excitation wavelength of 580 nm and an emission wavelength of 620 nm. Each test was performed three times. The values were converted to %∆F (AU) using the following equation:%ΔF (AU) = [(Fobs − F0)/(F100 − F0)] × 100 where Fobs is the fluorescence value measured in the presence of the peptide, F0 is the initial fluorescence of LPS with BC without the addition of peptides, F100 is the fluorescence value produced by adding 10 μg/mL polymyxin B.

E. coli ATCC25922 [6] = experiment: Membrane depolarization (diSC3-5); format: cell-based; conditions: E. coli ATCC25922, 0.5, 1 and 2×MIC
Experimental: The effects of the antimicrobial peptides on the plasma membrane potential were determined used cell membrane potential-sensitive fluorescent dye diSC3-5. Briefly, E. coli ATCC25922 cells were incubated in MHB to mid-log phase at 37 °C, rinsed 3 times with HEPES buffer, adjusted to an OD600 of 0.05. Next, KCl was used to adjust the final concentration to 0.4 μM and diSC3-5 was added. The mixture was incubated for 30 min at 37 °C. The antibacterial peptides at concentrations of 0.5, 1 and 2×MIC were then added to a cuvette containing 2 mL of bacterial solution, and the fluorescence change was recorded from 0 to 600 s with an F-4500 fluorescence spectrophotometer (Hitachi, Tokyo, Japan) (excitation λ = 622 nm, emission λ = 670 nm). Bacteria without antimicrobial peptides were used to determine the background fluorescence.

E. coli ATCC25922 [7] = experiment: Swimming motility assay; format: cell-based; conditions: E. coli ATCC25922, 0.3% agar, 1–8 μM peptide, 37 °C, 20 h; versus untreated control
Experimental: The cell motility assay was performed on LB medium containing 0.3% agar. The peptides were added to 10 mL of medium at final concentrations of 1–8 μM. After mixing well, the mixtures were poured into 6-well plates and dried for 2 h. Subsequently, an overnight culture of E. coli ATCC 25922 was inoculated in the center of the movement plate. After incubation at 37 °C for 20 h, images were taken using a FluoroChemQ system (Cell biosciences, San Jose, CA, USA). The experiment was independently repeated three times.

CC(C)[C@H](NC(=O)CNC(=O)[C@H]1CCCN1C(=O)[C@@H](NC(=O)[C@H](Cc1c[nH]cn1)NC(=O)[C@@H](NC(=O)[C@H](Cc1c[nH]cn1)NC(=O)[C@@H](NC(=O)[C@H](CCCNC(=N)N)NC(=O)[C@@H](N)CCCNC(=N)N)C(C)C)C(C)C)C(C)C)C(=O)N[C@@H](Cc1c[nH]cn1)C(=O)N[C@H](C(=O)N[C@@H](Cc1c[nH]cn1)C(=O)N[C@H](C(=O)N[C@@H](CCCNC(=N)N)C(=O)N[C@@H](CCCNC(=N)N)C(N)=O)C(C)C)C(C)C [HV2] (H-RRVHVHV[dP]GVHVHVRR-NH2; N-terminus assumed)
MIC (E. coli ATCC25922 [1]): 8 µM (≈ 15.5 µg/mL)
MIC (E. coli K88): 4 µM (≈ 7.76 µg/mL)
MIC (E. coli K99): 8 µM (≈ 15.5 µg/mL)
MIC (E. coli UB1005): 8 µM (≈ 15.5 µg/mL)
MIC (P. aeruginosa ATCC27853): 8 µM (≈ 15.5 µg/mL)
MIC (S. aureus ATCC29213): >128 µM
MIC (S. epidermidis ATCC12228): >128 µM
MIC (S. pullorum C7913): 8 µM (≈ 15.5 µg/mL)
MIC [2]: >128 µM
MBC (GM), geometric mean of MICs, Gram (−) (Gram-negative bacteria; Gram-negative strains, 256 μM used where no activity at 128 μM): 7.13 µM
MIC against Gram-negative bacteria (Gram-negative bacteria; range over the Gram-negative strains of Table 2): 4 to 8 µM
MBC (GM), geometric mean of MICs, Gram (+,−) [3]: 23.52 µM
MBC (GM), geometric mean of MICs, Gram (+) (Gram-positive bacteria): 256 µM
MIC, FeCl3 (E. coli ATCC25922 [4]; E. coli ATCC25922, 4 μM FeCl3, unit not given): 4
MIC, NH4Cl (E. coli ATCC25922 [4]; E. coli ATCC25922, 6 μM NH4Cl, unit not given): 4
MIC, ZnCl2 (E. coli ATCC25922 [4]; E. coli ATCC25922, 8 μM ZnCl2, unit not given): 1
MIC, MgCl2 (E. coli ATCC25922 [4]; E. coli ATCC25922, 1 mM MgCl2, unit not given): 8
MIC, KCl (E. coli ATCC25922 [4]; E. coli ATCC25922, 4.5 mM KCl, unit not given): 4
MIC, NaCl (E. coli ATCC25922 [4]; E. coli ATCC25922, 150 mM NaCl, unit not given): 4
MIC, Control (E. coli ATCC25922 [4]; E. coli ATCC25922, absence of physiological salts, no unit printed in Table 3 (Table 2 MIC in μM)): 8
LPS binding ability relative to binding activity of polymyxin B [5]: higher than 60%
plasma membrane depolarization (diSC3-5 release) (E. coli ATCC25922 [6]): more rapid and stronger plasma membrane depolarization relative to PG-1
swimming motility (diameter of swimming bacteria) (E. coli ATCC25922 [7]): significantly reduced the diameter of the swimming bacteria
